The text below walks through data of US10851097B2, “4,5,6,7-tetrahydro-1H-imidazo[4,5-c]pyridine and 1,4,5,6,7,8-hexahydroimidazo[4,5-d]azepine derivatives as janus kinase inhibitors” (Topivert Pharma Limited, priority 2015, dated 2020).

Data set [1] has as its system CD3/IL2 stimulated PBMC cells. Nature of the data set: IFNγ release from CD3/IL2 stimulated PBMC cells (assay (a)). The format is cell-based. The conditions noted are these: Homo sapiens, CD3/IL2 stimulation, 48 h, ELISA. On the procedure: (a) IFNγ Release from CD3/IL2 Stimulated PBMC Cells
PBMCs from healthy subjects are separated from whole blood using a density gradient (Lymphoprep, Axis-Shield Healthcare). Cells are added to a 96 well plate, and compound at the desired concentration added 2 hours prior to stimulation with a mixture of monoclonal antibody to CD3 (1 μg/ml, eBioscience) and human recombinant IL2 (10 ng/ml, Peprotech). After 48 hours incubation under normal tissue culture conditions, supernatants are collected and IFNγ release determined by Sandwich ELISA (Duo-set, R&D System). The IC50 is determined from the dose response curve.
On the technique in general: ELISA stands for enzyme-linked immunosorbent assay.

Another data set has as its system Jurkat cells. Nature of the data set: Cell cytotoxicity assay in Jurkat cells (assay (c)). The format is cell-based, human. As to conditions: 24 h, propidium iodide, normalised to DMSO control. The procedure:
(c) Cell Cytotoxicity Assay
1×10^5 Jurkat cells (immortalised human T lymphocytes) are added to the appropriate number of wells of a 96 well plate in 100 μL of media (RPMI supplemented with 10% foetal bovine serum). 1 μL of DMSO control (final concentration 1.0% v/v) or test compound (final concentration 20, 5 or 1 μg/mL) is added to the wells and incubated at 37° C., 5% CO2. After 24 hours, the plate is centrifuged at 1200 rpm for 3 minutes and the supernatant discarded. Cells are then resuspended in 150 μL (final concentration 7.5 μg/mL) of propidium iodide (PI) in PBS and incubated at 37° C., 5% CO2 for 15 minutes. After 15 minutes, cells are analysed by flow cytometry (BD accuri) using the FL3 window. The % viability is calculated as the % of cells that are PI negative in the test wells normalised to the DMSO control.

Molecules are shown by their SMILES.

The IC50 is the concentration needed to halve the response being measured. In data set [1], `CCc1cc(O)c(F)cc1-c1ccc2c(-c3nc4c([nH]3)CCN(C(=O)c3cnc(N5C[C@H](O)[C@@H](O)[C@H](O)[C@H]5CO)cn3)C4)n[nH]c2c1` (stereo in doubt) [Example 2(s), (2-(6-(2-ethyl-5-fluoro-4-hydroxyphenyl)-1H-indazol-3-yl)-6,7-dihydro-1H-imidazo[4,5-c]pyridin-5(4H)-yl)(5-((2R,3R,4R,5S)-3,4,5-trihydroxy-2-(hydroxymethyl)piperidin-1-yl)pyrazin-2-yl)methanone] gave an IC50 of 694 nM.
As for `CCc1cc(O)c(F)cc1-c1ccc2c(-c3nc4c([nH]3)CCN(C(=O)c3cnc(N(C)CCCC(=O)O)cn3)C4)n[nH]c2c1` [Example 2(a), 4-((5-(2-(6-(2-ethyl-5-fluoro-4-hydroxyphenyl)-1H-indazol-3-yl)-4,5,6,7-tetrahydro-1H-imidazo[4,5-c]pyridine-5-carbonyl)pyrazin-2-yl)(methyl)amino)butanoic acid], in data set [1], the IC50 came out at 732 nM.
In turn, `CCc1cc(O)c(F)cc1-c1ccc2c(-c3nc4c([nH]3)CCN(C(=O)c3cnc(NCCN5CCC(O)CC5)cn3)C4)n[nH]c2c1` [Example 2(b), (2-(6-(2-ethyl-5-fluoro-4-hydroxyphenyl)-1H-indazol-3-yl)-1,4,6,7-tetrahydro-5H-imidazo[4,5-c]pyridin-5-yl)(5-((2-(4-hydroxypiperidin-1-yl)ethyl)amino)pyrazin-2-yl)methanone] returned an IC50 in data set [1] of 87 nM.
On the same count and under the same terms, next, `CCc1cc(O)c(F)cc1-c1ccc2c(-c3nc4c([nH]3)CCN(C(=O)c3cnc(N(C)Cc5ccccn5)cn3)C4)n[nH]c2c1` [Example 2(c), (2-(6-(2-ethyl-5-fluoro-4-hydroxyphenyl)-1H-indazol-3-yl)-1,4,6,7-tetrahydro-5H-imidazo[4,5-c]pyridin-5-yl)(5-(methyl(pyridin-2-ylmethyl)amino)pyrazin-2-yl)methanone]: 37 nM; `CCc1cc(O)c(F)cc1-c1ccc2c(-c3nc4c([nH]3)CCN(C(=O)c3cnc(NCCN5CC[S+]([O-])CC5)cn3)C4)n[nH]c2c1` [Example 2(d), (2-(6-(2-ethyl-5-fluoro-4-hydroxyphenyl)-1H-indazol-3-yl)-1,4,6,7-tetrahydro-5H-imidazo[4,5-c]pyridin-5-yl)(5-((2-(1-oxidothiomorpholino)ethyl)amino)pyrazin-2-yl)methanone]: 270 nM.
The compound `CCc1cc(O)c(F)cc1-c1ccc2c(-c3nc4c([nH]3)CCN(C(=O)c3cnc(N5CC[S+]([O-])CC5)cn3)C4)n[nH]c2c1` [Example 2(e), (2-(6-(2-ethyl-5-fluoro-4-hydroxyphenyl)-1H-indazol-3-yl)-1,4,6,7-tetrahydro-5H-imidazo[4,5-c]pyridin-5-yl)(5-(1-oxildothiomorpholino)pyrazin-2-yl)methanone] came in with an IC50 in data set [1] of 57.6 nM. Moreover, in the data set on Jurkat cells, the “% viability at 1 μg/mL” value was 96%.
`CCc1cc(O)c(F)cc1-c1ccc2c(-c3nc4c([nH]3)CCN(C(=O)c3cnc(N5CCN(CCN(C)C)CC5)cn3)C4)n[nH]c2c1` [Example 2(f), (5-(4-(2-(dimethylamino)ethyl)piperazin-1-yl)pyrazin-2-yl)(2-(6-(2-ethyl-5-fluoro-4-hydroxyphenyl)-1H-indazol-3-yl)-1,4,6,7-tetrahydro-5H-imidazo[4,5-c]pyridin-5-yl)methanone]: the IC50 in data set [1] was 49.3 nM. Besides, the “% viability at 1 μg/mL” value with Jurkat cells was 16%.
In data set [1], `CCc1cc(O)c(F)cc1-c1ccc2c(-c3nc4c([nH]3)CCN(C(=O)c3cnc(NCCC5(O)CCN(C)CC5)cn3)C4)n[nH]c2c1` [Example 2(g), (2-(6-(2-ethyl-5-fluoro-4-hydroxyphenyl)-1H-indazol-3-yl)-1,4,6,7-tetrahydro-5H-imidazo[4,5-c]pyridin-5-yl)(5-((2-(4-hydroxy-1-methylpiperidin-4-yl)ethyl)amino)pyrazin-2-yl)methanone] yielded an IC50 of 271 nM. That is a sub-micromolar value.
Compound `CCc1cc(O)c(F)cc1-c1ccc2c(-c3nc4c([nH]3)CCN(C(=O)c3cnc(N(CCOC)CCOC)cn3)C4)n[nH]c2c1` [Example 2(i), (5-(bis(2-methoxyethyl)amino)pyrazin-2-yl)(2-(6-(2-ethyl-5-fluoro-4-hydroxyphenyl)-1H-indazol-3-yl)-1,4,6,7-tetrahydro-5H-imidazo[4,5-c]pyridin-5-yl)methanone] gave a half-maximal inhibitory concentration (IC50) in data set [1] of 14.5 nM. Further, the “% viability at 1 μg/mL” value in the data set on Jurkat cells came out at 53%.
In the case of `CCc1cc(O)c(F)cc1-c1ccc2c(-c3nc4c([nH]3)CCN(C(=O)c3cnc(N5CCN(CCn6ccnc6)CC5)cn3)C4)n[nH]c2c1` [Example 2(j), (5-(4-(2-(1H-imidazol-1-yl)ethyl)piperazin-1-yl)pyrazin-2-yl)(2-(6-(2-ethyl-5-fluoro-4-hydroxyphenyl)-1H-indazol-3-yl)-1,4,6,7-tetrahydro-5H-imidazo[4,5-c]pyridin-5-yl)methanone], it took 5.3 nM to reach half-maximal inhibition in data set [1] (IC50). For the same compound, in the data set with Jurkat cells, the “% viability at 1 μg/mL” value amounted to 12%.
For `CCc1cc(O)c(F)cc1-c1ccc2c(-c3nc4c([nH]3)CCN(C(=O)c3cnc(N5CCN(CCO)CC5)cn3)C4)n[nH]c2c1` [Example 2(l), (2-(6-(2-ethyl-5-fluoro-4-hydroxyphenyl)-1H-indazol-3-yl)-6,7-dihydro-1H-imidazo[4,5-c]pyridin-5(4H)-yl)(5-(4-(2-hydroxyethyl)piperazin-1-yl)pyrazin-2-yl)methanone] the same measures were 9.4 nM and 10%.
In the same order, the values of `CCc1cc(O)c(F)cc1-c1ccc2c(-c3nc4c([nH]3)CCN(C(=O)c3cnc(NCCOCCOCCOC)cn3)C4)n[nH]c2c1` [Example 2(m), (2-(6-(2-ethyl-5-fluoro-4-hydroxyphenyl)-1H-indazol-3-yl)-6,7-dihydro-1H-imidazo[4,5-c]pyridin-5(4H)-yl)(5-((2-(2-(2-methoxyethoxy)ethoxy)ethyl)amino)pyrazin-2-yl)methanone] are 15.2 nM and 88%.
For `CCc1cc(O)c(F)cc1-c1ccc2c(-c3nc4c([nH]3)CCN(C(=O)c3cnc(N(C)CCN(C)C(C)=O)cn3)C4)n[nH]c2c1` [Example 2(n), N-(2-((5-(2-(6-(2-ethyl-5-fluoro-4-hydroxyphenyl)-1H-indazol-3-yl)-4,5,6,7-tetrahydro-1H-imidazo[4,5-c]pyridine-5-carbonyl)pyrazin-2-yl)(methy)amino)ethyl)-N-methylacetamide] the same measures were 29.2 nM and 87%.
In turn, `CCc1cc(O)c(F)cc1-c1ccc2c(-c3nc4c([nH]3)CCN(C(=O)c3cnc(N5CC(CO)C5)cn3)C4)n[nH]c2c1` [Example 2(o), (2-(6-(2-ethyl-5-fluoro-4-hydroxyphenyl)-1H-indazol-3-yl)-6,7-dihydro-1H-imidazo[4,5-c]pyridin-5(4H)-yl)(5-(3-(hydroxymethyl)azetidin-1-yl)pyrazin-2-yl)methanone] had an IC50 in data set [1] of 22.5 nM. Further, the “% viability at 1 μg/mL” value in the data set on Jurkat cells is 62%.
In data set [1], `CCc1cc(O)c(F)cc1-c1ccc2c(-c3nc4c([nH]3)CCN(C(=O)c3cnc(N(CCO)CCO)cn3)C4)n[nH]c2c1` [Example 2(p), (5-(bis(2-hydroxyethyl)amino)pyrazin-2-yl)(2-(6-(2-ethyl-5-fluoro-4-hydroxyphenyl)-1H-indazol-3-yl)-6,7-dihydro-1H-imidazo[4,5-c]pyridin-5(4H)-yl)methanone] returned an IC50 of 154 nM.
In data set [1], `CCc1cc(O)c(F)cc1-c1ccc2c(-c3nc4c([nH]3)CCN(C(=O)c3cnc(NCCS(C)(=O)=O)cn3)C4)n[nH]c2c1` [Example 2(q), (2-(6-(2-ethyl-5-fluoro-4-hydroxyphenyl)-1H-indazol-3-yl)-6,7-dihydro-1H-imidazo[4,5-c]pyridin-5(4H)-yl)(5-((2-(methylsulfonyl)ethyl)amino)pyrazin-2-yl)methanone] yielded an IC50 of 113 nM. In addition, in the data set with Jurkat cells, the “% viability at 1 μg/mL” value is on record as 94%.
On to `CCc1cc(O)c(F)cc1-c1ccc2c(-c3nc4c([nH]3)CCN(C(=O)c3cnc(NCCN5CCCC5=O)cn3)C4)n[nH]c2c1` [Example 2(r), 1-(2-((5-(2-(6-(2-ethyl-5-fluoro-4-hydroxyphenyl)-1H-indazol-3-yl)-4,5,6,7-tetrahydro-1H-imidazo[4,5-c]pyridine-5-carbonyl)pyrazin-2-yl)amino)ethyl)pyrrolidin-2-one], for which, in data set [1], it took 90.8 nM to reach half-maximal inhibition (IC50). This lies in the double-digit nanomolar range.
The compound `CCc1cc(O)c(F)cc1-c1ccc2c(-c3nc4c([nH]3)CCN(C(=O)c3cnc(N(C)CCN5CCOC5=O)cn3)C4)n[nH]c2c1` [Example 2(u), 3-(2-((5-(2-(6-(2-ethyl-5-fluoro-4-hydroxyphenyl)-1H-indazol-3-yl)-4,5,6,7-tetrahydro-1H-imidazo[4,5-c]pyridine-5-carbonyl)pyrazin-2-yl)(methyl)amino)ethyl)oxazolidin-2-one] came in with an IC50 in data set [1] of 73.8 nM.
For the compound `CCc1cc(O)c(F)cc1-c1ccc2c(-c3nc4c([nH]3)CCN(C(=O)c3cnc(N5C[C@@H]6C(=O)NC(=O)[C@@H]6C5)cn3)C4)n[nH]c2c1` [Example 2(w), (3aR,6aS)-5-(5-(2-(6-(2-ethyl-5-fluoro-4-hydroxyphenyl)-1H-indazol-3-yl)-4,5,6,7-tetrahydro-1H-imidazo[4,5-c]pyridine-5-carbonyl)pyrazin-2-yl)tetrahydropyrrolo[3,4-c]pyrrole-1,3(2H,3aH)-dione], the IC50 in data set [1] was 942 nM. This IC50 lies about 13-fold higher than the previous one.
